Assay: pH of aqueous solutions or suspensions of additives, polymers and donepezil hydrochloride
Format: physicochemical
Settings: for pH OF ADDITIVES (2.5% AQUEOUS SOLUTIONS OR SUSPENSIONS): additive of the example alone, dissolved or suspended in purified water at 2.5%

Compound	pH OF ADDITIVES (2.5% AQUEOUS SOLUTIONS OR SUSPENSIONS)	pH (2.5% aqueous solution or suspension)
Cl.N[C@@H](CS)C(=O)O [CYSTEINE HYDROCHLORIDE, cysteine hydrochloride]	1.5	–
O=C([O-])CC(O)(CC(=O)[O-])C(=O)O.[Na+].[Na+] [DISODIUM CITRATE, disodium citrate]	5.2	–
O=C([O-])CC(O)(CC(=O)[O-])C(=O)[O-].[Na+].[Na+].[Na+] [SODIUM CITRATE, sodium citrate]	8.3	–
O=C([O-])CN(CCN(CC(=O)[O-])CC(=O)O)CC(=O)O.[Na+].[Na+] [DISODIUM EDETATE, disodium edetate]	4.5	–
N[C@@H](CS)C(=O)O [CYSTEINE, cysteine]	5.1	–
NCC(=O)O [GLYCINE, glycine]	6.2	–
N[C@@H](CC(=O)O)C(=O)O [ASPARTIC ACID, aspartic acid]	3.0	–
O=C1O[C@H]([C@@H](O)CO)C(O)=C1O [ASCORBIC ACID, ascorbic acid]	2.6	–
O=C(O)CC(O)(CC(=O)O)C(=O)O [CITRIC ACID, citric acid]	2.0	–
CSCC[C@H](N)C(=O)O [METHIONINE, methionine]	5.9	–
N[C@@H](CC(=O)[O-])C(=O)[O-].[Na+].[Na+] [SODIUM ASPARTATE, sodium aspartate]	6.8	–
sodium dihydrogen citrate [SODIUM […]]	3.7	–
O=C1O[C@H]([C@@H](O)CO)C([O-])=C1O.[Na+] [SODIUM ASCORBATE, sodium ascorbate]	7.5	–
OC[C@H]1O[C@@H](O[C@H]2[C@H](O)[C@@H](O)C(O)O[C@@H]2CO)[C@H](O)[C@@H](O)[C@H]1O (some centres unmarked) [FlowLac100, LACTOSE]	–	5.5
